This is an account of results in US20260232668A1 (Kadmon Corporation, LLC, priority 2023, published 2026).

For data set [1], the system named is B cells (CD20+) in human whole blood. The data set is described as follows: anti-CD79b-mediated B-cell activation in human whole blood (CD69 on CD20+ B cells, flow cytometry). It counts as cell-based. As to conditions: anti-CD79b stimulation.
Method: Flow cytometric analyses were conducted using BD LSRFortessa™ Cell Analyzer (BD Biosciences) and the data analyzed by FlowJo (BD Biosciences). B-cell activation is determined by an increase in surface expression of activation marker CD69 on B cells (CD20+) following anti-CD79b stimulation. The experiment was conducted in duplicate.
In data set [2] the test system is sclerodermatous chronic GVHD model. Description: Example 2: mouse model of sclerodermatous chronic GVHD, single agents. It counts as in vivo.
Method: Animals were not replaced during the course of the study. Mice were handled in accordance with standard conventional procedures. Animals were acclimatized for a minimum of 3 days prior to study commencement. […] The study was performed in animal rooms provided with filtered air at a temperature of 70±5° F. and 50% 20% relative humidity and an automatic timer for a light/dark cycle of 12 hours on and 12 hours off with no twilight.
On Day 0, a combination of bone marrow cells and splenocytes were transferred from donor LP/J mice to the recipients, as indicated in Table 2. […] The BM cells were isolated using standard flushing practices. […] All animals were monitored daily, and weight, survival, and disease progression were recorded following the scoring system described in Table 4.
On Day 20, animals were redistributed into groups so that the average scGVHD score was similar across all groups. Treatment was initiated on Day 21 and continued until Day 55. All dosing was performed BID to control for stress associated with oral gavage. […] On Days 33, 36, 39, 42, and 45, all animals were photographed under isoflurane anesthesia to assess disease severity.
The test system of data set [3] is murine model of sclerodermatous chronic graft-versus-host disease (GVHD). The data set is described as follows: Example 4: murine model of sclerodermatous chronic GVHD, ibrutinib and rilzabrutinib. Type of data set: in vivo, mouse. The conditions noted are these: for animals that did not display progressive disease by Day 56 (standard GVHD scale): vehicle 9%; for lung sum and individual component histopathology scores vs vehicle: ibrutinib 12.5 and 25 mg/kg (Groups 4, 5), rilzabrutinib 20 and 40 mg/kg (Groups 6, 7), not statistically significant. An excerpt: Animals were acclimatized for at least three days prior to study commencement.
Sclerodermatous chronic GVHD was induced in C57Bl/6 (CD45.1) mice using a single acute dose of 8.5 Gy of TBI on Day −1. […] The BM cells were isolated using standard flushing practices. […] Additionally, following TBI on Day −1 and up to Day 8, all animals were given supplemental high calorie highly palatable food in a dish on the bottom of the cage. Following transfer on Day 0, and then again as needed, all animals were given 1 mL/animal/day of supplemental fluids (warmed ringers solution) via subcutaneous injection. An additional 1 mL fluid may have been given in the pm on an as needed basis.
Ibrutinib. Ibrutinib was formulated with vehicle (0.5% MC).
Animals were treated twice daily on Days 21-55.
Animals in Groups 4 and 5 were administered ibrutinib for the first/AM dose and vehicle for the last/PM dose each day of dosing.
The modified GVHD score for scGVHD was based on 5 criteria: percentage of weight change (0-4), posture (hunching) (0-3), activity (0-3), fur texture (0-4), and skin integrity (0-4) (maximum index=18). […] Animals that appeared to be in pain were administered buprenorphine BID, as needed.
Progression-free survival was defined as an increase in GVHD Score of […] in comparison to Day 21 GVHD Score (standard or modified).
Fixed lung and skin samples were embedded in paraffin, sectioned at 5 microns, and slides stained with hematoxylin and eosin (H&E). One slide per block was sectioned and stained with hematoxylin and eosin (H&E). All slides were evaluated and scored with light microscopy by a board-certified veterinary pathologist.
Parametric data (weight change) were evaluated using one-way ANOVA with Dunnett's multiple comparisons test to compare all groups to the vehicle control group. Non-parametric data (GVHD scores) were analyzed with Kruskal-Wallis with Dunn's post-hoc test. All statistical analyses were performed using GraphPad Prism 8.4.3 Software (La Jolla, CA). Statistical significance was achieved when p<0.05.
Skin and Lung Histopathology. […] One slide per block was sectioned and stained with H&E. All slides were evaluated and scored with light microscopy by a board-certified veterinary pathologist. […] Lung range: 0-10; skin range: 0-30.
Dermal Thickness Measurements. Using H&E-stained slides, the dermis was measured (μm) in five areas across the tissue, with a mean calculated for each sample. Measurements were performed from epidermal basement membrane to the most superficial border of dermal collagen with subcuticular adipose. These measurements were only performed in areas of non-tangentially sectioned tissue, free of histologic artifacts, and with an intact epidermis.
Statistical Analysis. Data are presented as mean±standard error of the mean (SEM). Semi-quantitative sum and component histopathology scores were analyzed (GraphPad Prism) by non-parametric ANOVA (Kruskal-Wallis H test) with Dunn's multiple comparison post-hoc tests; dermal measurements were analyzed by one-way ANOVA with post-hoc Tukey tests as appropriate. Significance was set at p<0.05 for all tests.

For data set [4] the test system is unchanged. As to conditions: for survival: PO Days 21-55: belumosudil 125 mg/kg Days 21-32 then 100 mg/kg, ibrutinib 20 mg/kg, rilzabrutinib 40 mg/kg BID, vehicle 91.7%.
The conditions of data set [5]: cited from earlier work.
Setting [6] is: dose groups not distinguished in the legend.

Entries after “also recorded” stand apart in the source; their conditions may differ. Like-named read-outs stand apart in the source and are kept apart here.

As for `CC(C)(C=C(C#N)C(=O)N1CCC[C@@H](n2nc(-c3ccc(Oc4ccccc4)cc3F)c3c(N)ncnc32)C1)N1CCN(C2COC2)CC1` [rilzabrutinib, (R)-2-[3-[4-amino-3-(2-fluoro-4-phenoxy-phenyl)pyrazolo[3,4-d]pyrimidin-1-yl]piperidine-1-carbonyl]-4-methyl-4-[4-(oxetan-3-yl)piperazin-1-yl]pent-2-enenitrile], the IC50 in data set [1] (Homo sapiens, B-cell, dose-response 10 μM to 0.00017 μM, read-out: IC50 of inhibition of B-cell activation in whole blood) came out at 9.5 nM. Further, the “disease severity (GVHD scores, total GVHD burden AUC)” value in data set [2] (rilzabrutinib 20 and 40 mg/kg BID PO, Days 21-55) is on record as “dose-dependent, with a greater reduction in disease severity observed at the higher 40 mg/kg dose”. In data set [3] (20 mg/kg BID (Group 6)), the “body weight change (AUC Day 0-56) vs vehicle” value is reported as “notably more weight gain”; the “body weight change, death weight carried, vs vehicle” value is reported as “trend of increased weight gain”; the “modified GVHD score (AUC) vs vehicle” value is “notably lower modified GVHD scores”; the “modified GVHD score, death score carried: trend of lowered scores vs vehicle” value is “dampened after adjusting for survivor bias”. Also, in data set [3] (20 mg/kg BID (Group 6)), the “standard GVHD score (AUC) vs vehicle” value is “notably lower standard GVHD scores”; the “standard GVHD score, death score carried: trend of lowered scores vs vehicle” value is on record as “dampened after adjusting for survivor bias”; the “animals that did not display progressive disease by Day 56 (standard GVHD scale)” value was 30%. In addition, the “dermal thickness (H&E)” value in data set [3] (20 mg/kg BID (Group 6), among-group p=0.3) was “small reduction in mean thickness”. For the same compound, the survival in data set [3] (20 mg/kg BID PO, Days 21-55 (Group 6), vehicle 82%) was found to be 80%. In data set [3] (40 mg/kg BID (Group 7)), the “modified GVHD score (AUC) vs vehicle” value is recorded as “notably lower modified GVHD scores”; the “modified GVHD score, death score carried: trend of lowered scores vs vehicle” value was “dampened after adjusting for survivor bias”; the “standard GVHD score (AUC) vs vehicle” value is “notably lower standard GVHD scores”; the “standard GVHD score, death score carried: trend of lowered scores vs vehicle” value is reported as “dampened after adjusting for survivor bias”. For the same compound, the “animals that did not display progressive disease by Day 56 (standard GVHD scale)” value in data set [3] (40 mg/kg BID (Group 7)) was 10%. Besides, in data set [3] (40 mg/kg BID (Group 7), p=0.09), the “dermal fibrosis score vs vehicle” value is recorded as “statistical trend toward lowered scores”. In data set [3] (40 mg/kg BID PO, Days 21-55 (Group 7), vehicle 82%), this compound gave a survival of 90%. Besides, in data set [3] (setting [6]), the “dermal thickness (FIG. 11 legend)” value is on record as “slight reduction in dermal thickness” and the “skin sum histopathology score (FIG. 10A legend)” value is given as “Slightly lowered sum scores”. For the same compound, in data set [3] (either dose, 20 and 40 mg/kg BID (Groups 6 and 7)), the “skin sum histopathology score vs vehicle” value is on record as “lowered sum scores”. For the same compound, in data set [3], the “lung sum and individual component histopathology scores vs vehicle” value is “Small reductions”. Further, the “lung sum and individual component histopathology scores vs vehicle” value in data set [3] (listed as rilzabrunitib) is listed as “slight reductions in sum histopathology scores”. Also, the “standard GVHD score, death score carried, vs vehicle” value in data set [4] (Groups 4-8, rilzabrutinib 40 mg/kg BID (Group 6)) is “trend of lower standard GVHD scores”. Besides, the survival entry in data set [4] is “survived to the conclusion of the study”.

In the case of `CC(C)NC(=O)COc1cccc(-c2nc(Nc3ccc4[nH]ncc4c3)c3ccccc3n2)c1` [belumosudil, 2-{3-[4-(1H-indazol-5-ylamino)-2-quinazolinyl]phenoxy}-N-(propan-2-yl) acetamide], in data set [1] (10 μM compound, whole blood, anti-CD79b alone 73.4%), the “activated B cells (CD69 positive)” value was determined as 82.4%. In addition, the “inhibition of B-cell activation in whole blood (dose-response graph)” value in data set [1] (10 μM to 0.00017 μM) is given as “did not inhibit”. Further, in data set [4], the survival is recorded as 80%. Further, the belumosudil exposure entry in data set [5] (coadministration with proton pump inhibitors) and in data set [5] (coadministration with strong CYP3A inducers) was “decreases belumosudil exposure” each time.

As for `C=CC(=O)N1CCC[C@@H](n2nc(-c3ccc(Oc4ccccc4)cc3)c3c(N)ncnc32)C1` [ibrutinib, 1-[(3R)-3-[4-amino-3-(4-phenoxyphenyl)-1H-pyrazolo[3,4-d]pyrimidin-1-yl]-1-piperidinyl]-2-propen-1-one, reference compound], in data set [2] (ibrutinib 25 mg/kg PO AM dose, Days 21-55, vs vehicle), the GVHD scores result is on record as “numerical reduction in GVHD scores”. In data set [3] (12.5 mg/kg (Group 4)), the “body weight change (AUC Day 0-56) vs vehicle” value was “notably more weight gain”; the “body weight change, death weight carried, vs vehicle” value is on record as “trend of increased weight gain”; the “animals that did not display progressive disease by Day 56 (standard GVHD scale)” value is on record as 10%. Moreover, the survival result in data set [3] (12.5 mg/kg PO AM dose, Days 21-55 (Group 4), to Day 56) is given as “survived until the end of the study”. Also, in data set [3] (25 mg/kg (Group 5)), the “modified GVHD score (AUC) vs vehicle” value was “notably lower modified GVHD scores”; the “modified GVHD score, death score carried: trend of lowered scores vs vehicle” value is given as “dampened after adjusting for survivor bias”; the “skin sum histopathology score vs vehicle” value is recorded as “lowered sum scores”; the “standard GVHD score (AUC) vs vehicle” value was “notably lower standard GVHD scores”. Further, in data set [3] (25 mg/kg (Group 5)), the “standard GVHD score, death score carried: trend of lowered scores vs vehicle” value is on record as “dampened after adjusting for survivor bias” and the “animals that did not display progressive disease by Day 56 (standard GVHD scale)” value is recorded as 40%. Also, the “dermal fibrosis score vs vehicle” value in data set [3] (25 mg/kg (Group 5), p=0.02) is “statistically lowered dermal fibrosis scores”. Moreover, in data set [3] (25 mg/kg PO AM dose, Days 21-55 (Group 5), vehicle 82%), the survival was determined as 90%. Also, the “skin sum histopathology score (FIG. 10A legend)” value in data set [3] (setting [6]) was “Slightly lowered sum scores”. Also, the “lung sum and individual component histopathology scores vs vehicle” value in data set [3] (listed as ibrunitib) was “Small reductions; also recorded: slight reductions in sum histopathology scores”. This compound also yielded a survival in data set [4] of 90%.

Usually IC50 stands for the concentration at which inhibition is half-maximal.
